Results published in US20080306019A1, “Dopamine Receptor Agonists in the Treatment and Prevention of Hiv-Induced Dementia” (priority 2005, published 2008).

Columns and labels:
[1] = tested on: ovariectomized female Sprague-Dawley rats; experiment: IV cocaine-induced locomotor activity after intra-accumbal Tat (1-72) (Example 14); format: in vivo, rat; details: for mean total activity (±SEM): IV cocaine 3.0 mg/kg; for mean TIC (time in center): across days; for TIC, acute (Day 1): acute IV cocaine
Excerpt: Animals: Sixty-four adult ovariectomized female, Sprague-Dawley rats (70 days old) were obtained from Harlan Laboratories, Inc. (Indianapolis, Ind.). All rats were surgically implanted with an Intracath IV catheter (22 ga, Becton/Dickinson General Medical Corp., Grand Prarie, Tex.), which was used as a SC, dorsally implanted port for chronic IV injections. The subcutaneous implantable access port for rats was developed and described by Mactutus et al. (1994). Ovariectomized rats were used because estrogen is protective against the neurotoxic effects of Tat (Wallace et al., 2006). Serial ovariectomy and indwelling jugular catheter surgeries occurred for all rats during the same procedure. Upon arrival at the animal care facilities, rats were placed in quarantine for 7 days, and then transferred to the colony. Animals were pair housed throughout the experiment and the catheters were flushed daily with 0.2 ml of heparinized (2.5%) saline. Rodent food (Pro-Lab Rat, Mouse Hamster Chow #3000) and water were provided ad lib. The colony was maintained at 21±2° C., 50%±10% relative humidity and a 12L: 12D cycle with lights on at 0700 h (EST).
Locomotor activity: Habituation: Rats in the vehicle-saline (VEH-SAL), Tat-saline (Tat-SAL), vehicle-cocaine (VEH-COC), and Tat-cocaine (TAT-COC) groups were habituated to the locomotor activity chambers for two 60-min sessions, one/day. Twenty four hours after the second habituation session, all rats were injected with IV saline and placed into the activity chambers for 30-min to measure baseline activity. The activity monitors were square (40×40 cm) open-field chambers (Hamilton-Kinder Inc., Poway, Calif.) that detected free movement of animals by infrared photocell interruptions. This equipment used an infrared photocell grid (32 emitter/detector pairs) to measure locomotor activity. The chambers were converted into round (˜40 cm diameter) compartments by adding clear Plexiglas inserts; photocell emitter/detector pairs were tuned by the manufacturer to handle the extra perspex width. Circular chambers increase the sensitivity to detect locomotor activity (Harrod et al., 2006). All activity monitors were located in an isolated room.
Intra-accumbal Tat microinjection: All rats received intra-accumbal Tat or vehicle (VEH; physiological saline) injections approximately 24 hours after the saline baseline activity session and then received subsequent IV injections of cocaine (3.0 mg/kg/injection) or saline according to a 2×2, protein×drug, design. […] Tat was therefore administered to the core region of the N Acc to determine if the sensitization process was disrupted. Rats were administered intra-accumbal Tat or VEH injections according to methods previously described (Bansal et al., 2000; Aksenov et al., 2003). Briefly, rats were anesthetized using a mixture of ketamine hydrochloride and xylazine by intraperatoneal (IP) injection (7.5 mg ketamine/100 gb.wt. […].). 15 μg/l of Tat was injected bilaterally, using a silanized Hamilton Syringe at the following coordinates: 1.8 mm anterior, ±1.6 mm lateral, and 7.0 mm ventral from bregma on the skull surface, over an interval of one minute, with a one minute tissue recovery period before withdrawal.
IV cocaine-induced locomotor activity: Twenty-four hours after rats received bilateral intra-accumbal injections, IV cocaine or saline was administered. The animals were immediately placed into locomotor activity chambers following cocaine or saline. The animals' locomotor activity response to cocaine was assessed for 30 minutes on only two occasions: immediately after the first (Day 1) and last (Day 14) cocaine injections; however, rats were administered daily IV cocaine or saline injections in the home cage on days 2-13. […]

[2] = tested on: rat hippocampal neurons; experiment: Protein carbonyl immunoreactivity in rat hippocampal cell cultures; details: 48-hrs treatment
[3] = tested on: human fetal neurons; details: human fetal neuronal cultures, Turchan et al. 2001; cited from earlier work
[4] = tested on: rat hippocampal neurons; experiment: Intracellular ROS production (DCF fluorescence) in rat hippocampal neuronal cultures; format: cell-based
Experimental: Neuronal cultures were incubated with 10 μM H2DCFDA (Molecular Probes, Eugene, Oreg.) for 60 min at 37° C. in PBS.
No decrease in neuronal viability occur-red in cell cultures subjected to Tat alone or Tat+cocaine after 2 hours of treatment.

[5] = cited from earlier work
[6] = repeated daily dosing in rat (Robinson et al. 1994)

With `COC(=O)[C@H]1[C@@H](OC(=O)c2ccccc2)C[C@@H]2CC[C@H]1N2C.Cl` [cocaine, Cocaine hydrochloride] the “total activity, repeated IV cocaine” value ([1]; 14 days) was “induced behavioral sensitization of total activity”, the “mean total activity (±SEM)” value ([1]; 10 minute) was 2363.0 (±120.0) and the “mean total activity (±SEM)” value ([1]; 20 minute) was 1660.6 (±103.8). For the same compound, the “mean total activity (±SEM)” value ([1]; 30 minute) was 1494.01 (±66.5), the “mean TIC (time in center)” value ([1]; 10 minute) was 116.6 (±12.4) seconds and the “mean TIC (time in center)” value ([1]; 20 minute) was 152.3 (±20.1) seconds. For the same compound, the “mean TIC (time in center)” value ([1]; 30 minute) was 160.3 (±19.6) seconds, the “TIC, acute (Day 1)” value ([1]; 10 minute) was 72.1 (±15.0) seconds and the “TIC, acute (Day 1)” value ([1]; 20 minute) was 100.2 (±19.0) seconds. The “TIC, acute (Day 1)” value ([1]; 30 minute) was 108.9 (±24.4) seconds, the “total activity, acute cocaine (Day 1)” value ([1]; rat, in vivo) was “did not increase total activity” and the “locomotor composite incidence scores, VEH-COC vs VEH-SAL” value ([1]; repeated (day 14) cocaine) was “significantly higher locomotor composite incidence scores”. For the same compound, the “levels of protein oxidation, Tat + cocaine vs Tat alone” value [2] was “higher than in cultures treated with just Tat alone”, the “cocaine level not neurotoxic (prior work)” value [3] was at most 16 µM and the “intracellular ROS production, cocaine + Tat vs Tat alone” value ([4]; 1.6 μM cocaine + 50 nM Tat, 2 hours) was “increased intracellular ROS production relative to cultures treated with 50 nM Tat alone”. For the same compound, the “difference in DCF fluorescence, Tat+cocaine vs Tat” value ([4]; 48 hours of treatment) was “not significant”, the “DCF fluorescence, cocaine alone” value ([4]; cocaine alone) was “did not cause changes in DCF fluorescence” and the “time to peak arterial plasma levels” value ([5]; 3.0 mg/kg/injection IV (Booze et al. 1997)) was “within one-minute”. For the same compound, the t1/2 in plasma ([5]; IV 3.0 mg/kg, rats (Booze et al., 1997)) was 12 to 13 min, the “fetal brain levels of cocaine” value [5, 6] was 1750 ± 250 ng/mL and the “fetal plasma levels of cocaine” value [5, 6] was 500 ng/mL.
